In PMC7361990, “Molecular Basis for Ser/Thr Specificity in PKA Signaling” (Cells, 2020):

Key:
PKA Cα F187I = target: T1, PKA Cα F187I (Homo sapiens, UniProt P17612, F188I); assay: Coupled spectrophotometric kinase assay; type: biochemical; settings: mean ± SD of at least three independent measurements; for Km / kcat: 20 nM kinase with S-Kemptide, 10 nM with T-Kemptide, SD; for kcat/KM: catalytic efficiency
T1 construct: made in house
Protocol: (§1) To determine the Michaelis-Menten constant (KM) and the turnover number (kcat) of purified PKA Cα wt and the DFG+1 mutants for the peptide substrate Kemptide, a coupled spectrophotometric assay was used. As we were interested in the substrate specificity of the kinase, we tested two different peptide substrates: S-Kemptide (LRRASLG) as a serine substrate and T-Kemptide (LRRATLG) as a threonine substrate (GeneCust, Boynes, France). 50 nM PKA Cα wt were used when measured with T-Kemptide and 20 nM wt, F187I, or F187T when measured with S-Kemptide. In all other assays, the final kinase concentration was 10 nM of the respective kinase. All kinases were measured with a minimum of three independent replicates. The calculated turnover was plotted against the […] and analyzed with GraphPad Prism 8.0 (GraphPad Software, San Diego, CA, USA).

PKA Cα wt = target: T2, PKA Cα wt (Homo sapiens, UniProt P17612); assay: Coupled spectrophotometric kinase assay; type: biochemical; settings: for Km / kcat: 20 nM kinase with S-Kemptide, 50 nM with T-Kemptide, SD; for Km / kcat / kcat/KM: mean ± SD of at least three independent measurements; for kcat/KM: catalytic efficiency
T2 construct: made in house
Protocol: as §1

PKA Cα F187T = target: T3, PKA Cα F187T (Homo sapiens, UniProt P17612, F188T); assay: Coupled spectrophotometric kinase assay; type: biochemical; settings: mean ± SD of at least three independent measurements; for Km / kcat: 20 nM kinase with S-Kemptide, 10 nM with T-Kemptide, SD; for kcat/KM: catalytic efficiency
T3 construct: made in house
Protocol: as §1

PKA = settings: cited from earlier work
From the text: The PKA C subunit is a classic example for a Ser/Thr kinase with serine specificity and this preference is highly conserved among different species. PKA can select target substrates according to the consensus sequence RRXS*/T*Y, where X is any residue, and Y is a hydrophobic residue.

**Q.** Which results are given for “LRRATLG [T-Kemptide, LRRATLG, threonine peptide substrate]”?
**A.** Km (PKA Cα F187I): 19.8 ± 3.3 µM; kcat (PKA Cα F187I): 43.0 ± 4.7 s⁻¹; kcat/KM (PKA Cα F187I): 22.1 ± 4.5 ×10^5 M^−1s^−1; Km (PKA Cα wt): 861 ± 184 µM; kcat (PKA Cα wt): 7.5 ± 0.8 s⁻¹; kcat/KM (PKA Cα wt): 0.09 ± 0.02 ×10^5 M^−1s^−1; Km (PKA Cα F187T): 25 ± 3.4 µM; kcat (PKA Cα F187T): 37.1 ± 4.5 s⁻¹; kcat/KM (PKA Cα F187T): 14.9 ± 0.6 ×10^5 M^−1s^−1

**Q.** For “LRRASLG [S-Kemptide, heptapeptide (LRRASLG), canonical serine substrate of PKA derived from the porcine liver pyruvate kinase]”, which Km (PKA Cα F187I) is on record?
**A.** Its Km is 92.2 ± 3.8 µM.

**Q.** And the kcat (PKA Cα F187I)?
**A.** The kcat was 25.4 ± 5.8 s⁻¹.

**Q.** And the kcat/KM (PKA Cα F187I)?
**A.** Its kcat/KM is 2.8 ± 0.8 ×10^5 M^−1s^−1.

**Q.** And the Km (PKA Cα wt)?
**A.** The Km was 19.8 ± 3.9 µM.

**Q.** What about the kcat (PKA Cα wt) of the same substance?
**A.** Its kcat is 19.8 ± 1.0 s⁻¹.

**Q.** And the “higher catalytic efficiency (kcat/KM) for the serine substrate peptide compared to T-Kemptide” value (PKA Cα wt; S-Kemptide versus T-Kemptide)?
**A.** Its value is “more than 100 fold”.

**Q.** And the kcat/KM (PKA Cα wt)?
**A.** The kcat/KM was 10.3 ± 1.7 ×10^5 M^−1s^−1.

**Q.** What about the Km (PKA Cα F187T) of the same substance?
**A.** The Km was 23 ± 3.1 µM.

**Q.** And the kcat (PKA Cα F187T)?
**A.** The kcat was 15.7 ± 0.3 s⁻¹.

**Q.** And the kcat/KM (PKA Cα F187T)?
**A.** The kcat/KM was 6.9 ± 1.2 ×10^5 M^−1s^−1.

**Q.** Which “higher catalytic efficiency than Kemptide” value (PKA) does the source give for “GRTGRRNSI [peptide derived from PKI with a serine introduced at the P0 position]” here?
**A.** The value was “more than 70 fold”.
